# Results: PubChem BioAssay AID977628 (Broad Institute, 2014)
# Inconclusive results are not listed. Calls of active or inactive are those of the source.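 How the source made its calls: active means compound lowering the normal-ribosome reporter at least twice as much as the humanized-ribosome reporter, growth loss under a set limit; inconclusive means no clear call, values can overlap the other calls; inactive means the rest.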
# System: E. coli WT GFP strain growth, fluorescence, 24 h
# Assay: growth of wild-type and h24-humanized E. coli strains – h24 mutant RFP vs wild-type GFP, cherry-pick, dose response (AID 977628)
# Details: not given
row,Structure (SMILES),AC50
1,CCn1nc(C(=O)OCc2cccc(S(=O)(=O)N(C)C)c2)c2ccccc2c1=O,> 100 µM (inactive)
2,O=C(O)CCN(Cc1ccccc1)S(=O)(=O)c1ccccc1Cl,> 100 µM (inactive)
3,O=C(O)CSc1nnc(-c2ccc(Cl)cc2Cl)n1-c1ccc(Br)cc1,> 100 µM (inactive)
4,Cc1cccc(S(=O)(=O)NC(=O)C2(C)CCN2C(=O)c2ccccc2CCc2ccccc2)c1 (configuration not stated),> 100 µM (inactive)
5,CC(C(=O)Nc1nc2ccccc2s1)n1cc([N+](=O)[O-])cn1 (configuration not stated),> 100 µM (inactive)
6,CC1CCCN(C(=O)C(C)Nc2cc(Cl)ccc2N2CCOCC2)C1 (configuration not stated),> 100 µM (inactive)
7,COc1cc2nc(Nc3ccc(F)cc3)nc(N)c2cc1OC,> 100 µM (inactive)
8,O=C(O)c1nn2c(C(F)(F)F)cc(-c3cccs3)nc2c1Cl,> 100 µM (inactive)
9,CC(=O)c1ccc(N2CCN(C(=O)C3CCN(S(=O)(=O)c4ccc5c(c4)CC(C)N5C(C)=O)CC3)CC2)cc1 (configuration not stated),> 100 µM (inactive)
10,O=C(c1cc(COc2ccc(F)cc2F)on1)N1CCCC(c2ccccc2)C1 (configuration not stated),> 100 µM (inactive)
11,COc1cc(NC(=O)C(c2ccccc2)c2ccccc2)c(C(=O)O)cc1OC,> 100 µM (inactive)
12,COc1ccc2[nH]cc(CCNC(=O)C3CC(=O)N(c4ccc(Cl)cc4)C3)c2c1 (configuration not stated),> 100 µM (inactive)
13,COCCNc1cc(-c2ccccc2)nc2cc(-c3cccc(F)c3)nn12,> 100 µM (inactive)
14,CC(=O)c1cccc(NC(=O)COC(=O)CCC(=O)c2ccc(F)cc2)c1,> 100 µM (inactive)
15,NC(=O)c1nsc(C(=O)N(c2ccccc2F)C(C(=O)NCc2ccc(F)cc2)c2ccc(O)cc2)c1N (configuration not stated),> 100 µM (inactive)
16,Cc1ccccc1S(=O)(=O)c1cc2ccccc2nc1N,> 100 µM (inactive)
17,COc1cccc(CNC(=O)CCSCc2ccccc2F)c1,> 100 µM (inactive)
18,O=C(CN1CCC(n2nnc3cc(F)ccc32)CC1)N1CCc2ccccc2C1,> 100 µM (inactive)
19,Cc1nc(Sc2ccccc2)c(C#N)c(C)c1[N+](=O)[O-],> 100 µM (inactive)
20,COc1ccc(OC)c(-c2nn(-c3ccccc3)cc2C(=O)N2CCc3ccccc3C2)c1,> 100 µM (inactive)
21,COc1ccc(C)cc1-n1c(=O)c2ccccc2c2ccccc2c1=O,> 100 µM (inactive)
22,COC(=O)c1sccc1NC(=O)Cn1nnc(-c2ccccc2C)n1,> 100 µM (inactive)
23,O=C1CCCN1CCCNc1ncnc2c1[nH]c1ccc(Cl)cc12,> 100 µM (inactive)
24,CC1Sc2ccc(S(=O)(=O)NCc3ccccc3)cc2NC1=O (configuration not stated),> 100 µM (inactive)

row,Structure (SMILES),AC50
1,CCN(C(=O)COC(=O)c1ccc([N+](=O)[O-])o1)c1cccc2ccccc12,> 100 µM (inactive)
2,CC(NCc1ccc(S(N)(=O)=O)cc1)C(=O)Nc1cc([N+](=O)[O-])ccc1Cl (configuration not stated),> 100 µM (inactive)
3,CCCn1nnnc1NCc1ccccc1OCc1cccs1,> 100 µM (inactive)
4,CCC(C)C(=O)Nc1nc2ccc(OC)cc2s1 (configuration not stated),> 100 µM (inactive)
5,COc1ccc(OCC2c3cc(OC)c(OC)cc3CCN2C(=O)C(C)C)cc1 (configuration not stated),> 100 µM (inactive)
6,O=C(C[n+]1cc(-c2ccc(Cl)c(Cl)c2)n2c1CCC2)OCc1ccccc1,> 100 µM (inactive)
7,Nc1nn(-c2ccccc2)c2ccc([N+](=O)[O-])cc12,> 100 µM (inactive)
8,COc1ccc(NS(=O)(=O)c2ccc(Cl)c(NC(=O)c3ccccc3F)c2)cc1,> 100 µM (inactive)
9,S=c1[nH]nc(-c2ccc3ccccc3n2)n1-c1ccc2c(c1)OCCO2,> 100 µM (inactive)
10,COc1cc(SC)ccc1C(=O)N1CCN(c2ccccc2F)CC1,> 100 µM (inactive)
11,CSc1cccc(NC(=O)CSc2nc3ccccc3o2)c1,> 100 µM (inactive)
12,COc1ccc(NS(=O)(=O)c2cc(NC(=O)CNC(=O)c3cccc(OC)c3)ccc2C)cc1,> 100 µM (inactive)
13,C=CCN(c1ccccc1)S(=O)(=O)c1cccc2cccnc12,> 100 µM (inactive)
14,O=C1c2ccccc2C(=O)N1CCc1c[nH]c2ccccc12,> 100 µM (inactive)
15,O=C(Nc1ccc2c(c1)OCCO2)c1cccnc1Oc1ccc(Cl)cc1,> 100 µM (inactive)
16,O=C(CCCOc1ccc(Cl)cc1Cl)Nc1ccccc1C(=O)O,> 100 µM (inactive)
17,Cc1cc(Br)ccc1NC(=O)c1ccco1,> 100 µM (inactive)
18,C[C@@H]1CCCCO[C@@H](CN(C)C(=O)c2ccccc2)[C@H](C)CN([C@@H](C)CO)C(=O)c2cc(NC(=O)c3ccccc3)ccc2O1,> 100 µM (inactive)
19,COc1ccc(-c2cc(C(=O)N(C)CCc3ccc(OC)c(OC)c3)c3ccccc3n2)cc1,> 100 µM (inactive)
20,CC1CCCCN1CC(O)COCCC12CC3CC(CC(C3)C1)C2 (configuration not stated),> 100 µM (inactive)
21,CCOc1ccc(OCc2cccc(C(=O)O)c2)cc1,> 100 µM (inactive)
22,O=C(O)CC1(CC(=O)NCc2ccc(-c3cccs3)cc2)CCCCC1,> 100 µM (inactive)
23,CCn1nc(C)cc1C(=O)N1CCCC(C(=O)c2ccc3ccccc3c2)C1 (configuration not stated),> 100 µM (inactive)
24,COc1cccc(C(NC(C)=O)c2nc(-c3ccccc3OC)cs2)c1 (configuration not stated),> 100 µM (inactive)

row,Structure (SMILES),AC50
1,CC1(C)CC(=O)c2cnc(N3CCc4ccccc43)nc2C1,> 100 µM (inactive)
2,CC(=O)N1CCN(c2nc(-c3cccs3)nc3ccccc23)CC1,> 100 µM (inactive)
3,COc1cccc(NC2=Nc3cccc4cccc2c34)c1,> 100 µM (inactive)
4,O=C(Cc1cccc(NC(=O)C2CCN(C(=O)CCc3ccccc3)CC2)c1)Nc1cccc(C(=O)N2CCCC2)c1,> 100 µM (inactive)
5,O=C(CN1c2ccccc2S(=O)(=O)c2ccccc21)NCc1ccc(F)cc1,> 100 µM (inactive)
6,CCCc1c(C(=O)Nc2ccc(OC)cc2)cnn1-c1ccccc1,> 100 µM (inactive)
7,CC(C)C[C@@H](CSc1ccccc1)N1CCN(CC(C)C)CCC1=O,> 100 µM (inactive)
8,CCCCNc1ccc2c(c1)OC[C@@H](Cc1ccccc1)NS2(=O)=O,> 100 µM (inactive)
9,COc1ccccc1NC(=O)CSc1nccn1Cc1ccc(F)cc1,> 100 µM (inactive)
10,Cc1cccc(OCCC(=O)N(C)CC(=O)Nc2cccc3ccccc23)c1,> 100 µM (inactive)
11,O=C(O)c1cc2ccc3ccccc3c2[nH]1,> 100 µM (inactive)
12,Cc1cccc(NC(=O)c2sc3nc(-c4ccccc4)cn3c2C)n1,> 100 µM (inactive)
13,Cc1ccccc1OCC(O)Cn1c(NCc2ccco2)nc2c1c(=O)n(C)c(=O)n2C (configuration not stated),> 100 µM (inactive)
14,CCC(=O)Nc1nc2ccc(NC(=O)c3cc(OC)c(OC)c(OC)c3)cc2s1,> 100 µM (inactive)
15,Cc1ccc(C(=O)Nc2cccc(N(C)S(C)(=O)=O)c2)cc1S(=O)(=O)Nc1ccccc1,> 100 µM (inactive)
16,COc1ccccc1-n1c(Cc2ccccc2)nc2ccccc2c1=O,> 100 µM (inactive)
17,Cc1ccc(N2C(=O)NC(NS(=O)(=O)c3ccccc3)(C(F)(F)F)C2=O)cc1C (configuration not stated),> 100 µM (inactive)
18,COc1cccc(C2c3cc4c(cc3OC(N3CCCC3)C2C)OCO4)c1O (configuration not stated),> 100 µM (inactive)
19,CCOC(=O)c1csc(NC(=O)CC2CCCC2)n1,> 100 µM (inactive)
20,CCOC(=O)c1cc(C)nc(N2CCCCC2)c1C#N,> 100 µM (inactive)
21,CCN(CC)S(=O)(=O)c1cc(NS(=O)(=O)c2cccc(Cl)c2Cl)ccc1C,> 100 µM (inactive)
22,COc1ccccc1Cn1c(=S)[nH]c2ccc(F)cc2c1=O,> 100 µM (inactive)
23,CN(C)CCCNc1ccc(-c2cc(Nc3cccc(Cl)c3)ncn2)cn1,> 100 µM (inactive)
24,COc1ccc2[nH]c3c(=O)n(CCCCC(=O)NCCC(C)C)c(=S)[nH]c3c2c1,> 100 µM (inactive)

row,Structure (SMILES),AC50
1,COc1cccc(NC(=O)C2CCC(CNS(=O)(=O)c3cccs3)CC2)c1 (configuration not stated),> 100 µM (inactive)
2,O=C(CCC(=O)c1cccs1)OCC(=O)c1ccc(Cl)s1,> 100 µM (inactive)
3,CCn1nc(Cc2cccc3ccccc23)c(C#N)c1N,> 100 µM (inactive)
4,c1ccc(SCc2nc3ccccc3s2)nc1,> 100 µM (inactive)
5,CSc1ccccc1NC(=O)c1ccccc1N(Cc1ccccc1)S(C)(=O)=O,> 100 µM (inactive)
6,CSC1=NCCN1C(=O)Cc1ccc(-c2ccccc2)cc1,> 100 µM (inactive)
7,O=C(C[C@H]1CC[C@@H]2[C@H](COC[C@@H](O)CN2C(=O)Nc2cc(Cl)cc(Cl)c2)O1)N1CCOCC1,> 100 µM (inactive)
8,COc1cccc(Nc2nc(N)c([N+](=O)[O-])c(NCc3ccccc3)n2)c1,> 100 µM (inactive)
9,CCOC(=O)c1cnc2c(ccc3ccccc32)c1NCCCN(C)C,> 100 µM (inactive)
10,O=C(Cc1coc2ccc3ccccc3c12)NCc1ccccc1,> 100 µM (inactive)
11,COc1ccc(NC(=O)CN(C)C(=O)c2cc(C3CC3)nn2-c2ccccc2)cc1,> 100 µM (inactive)
12,O=C(O)C1CCCCC1C(=O)Nc1ccc(OCc2ccccc2)cc1 (configuration not stated),> 100 µM (inactive)
13,O=C(Nc1cccc(-c2cn3ccccc3n2)c1)c1ccccc1,> 100 µM (inactive)
14,CCCCCCCNC(=O)c1ccc(N2CCC3(CC2)OCCO3)c([N+](=O)[O-])c1,> 100 µM (inactive)
15,O=C1NC(=O)C2(Cc3cc([N+](=O)[O-])ccc3N3CCN(C(=O)c4ccccc4)CC32)C(=O)N1 (configuration not stated),> 100 µM (inactive)
16,Cc1cc(Br)ccc1SCC(=O)OCC(=O)NCc1ccco1,> 100 µM (inactive)
17,O=C(NCc1nc2ccccc2[nH]1)c1ccc(S(=O)(=O)N2CCCC2)cc1,> 100 µM (inactive)
18,CCc1nc2ccccc2n1CCc1ccccc1,> 100 µM (inactive)
19,CCOC(=O)c1cnc2c(cnn2C)c1NCc1ccc(OC)cc1,> 100 µM (inactive)
20,CCOc1ccc2nc(NC(=O)CSc3nc(SC)ns3)sc2c1,> 100 µM (inactive)
21,CC(CCC(=O)O)C1CC[C@@]2(C)C3C(=O)CC4C(C)(C)C(O)CC[C@]4(C)C3C(=O)C[C@]12C (some centres not stated),> 100 µM (inactive)
22,COC(=O)c1cc(C(=O)c2c(C)cc3ccccn23)cc([N+](=O)[O-])c1,> 100 µM (inactive)
23,Cc1cccc(NC(=O)CC23CC4CC(C2)CC(n2nnc(C)n2)(C4)C3)c1,> 100 µM (inactive)
24,COc1cccc(OC)c1OCCCOc1cccc2cccnc12,> 100 µM (inactive)

# Same assay, conditions: measured here: WT GFP, test 1
row,Structure (SMILES),AC50 [µM]
1,COc1ccc2[nH]c3c(=O)n(CCCCC(=O)NCCC(C)C)c(=S)[nH]c3c2c1,> 100
